Tests used:
Carboplatin = compound: C1CC(C1)(C(=O)[O-])C(=O)[O-].N.N.[Pt+2] [Carboplatin]; conditions: max 10 µM
Method in brief: (§1)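 In 1536-well plates, cancer cell lines in 7.5 μl DMEM/F12 or RPMI with 10% FBS spent 24 hours at 37°C and 5% CO2 and were then dosed for 72 hours with final DMSO typically 0.2%. Viability was read by CellTiter-Glo 2.0 luminescence and scaled between blank-well and DMSO-well means. The single-agent IC50 was fitted from dose responses using a logistic curve in a non-linear mixed effects model, and that logistic curve had two parameters.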

AZD5363 = compound: C1CN(CCC1(C(=O)N[C@@H](CCO)C2=CC=C(C=C2)Cl)N)C3=NC=NC4=C3C=CN4 [AZD5363]; conditions: max 10 µM
Method in brief: as §1

AZD1775 = compound: C=CCn1c(=O)c2cnc(Nc3ccc(N4CCN(C)CC4)cc3)nc2n1-c1cccc(C(C)(C)O)n1 [AZD1775]; conditions: max 3 µM
Method in brief: as §1

Trametinib = compound: CC(=O)Nc1cccc(-n2c(=O)n(C3CC3)c(=O)c3c(Nc4ccc(I)cc4F)n(C)c(=O)c(C)c32)c1 [Trametinib]; conditions: max 1 µM
Method in brief: as §1

Paclitaxel = compound: CC(=O)O[C@H]1C(=O)[C@@]2(C)[C@H]([C@H](OC(=O)c3ccccc3)[C@]3(O)C[C@H](OC(=O)[C@H](O)[C@@H](NC(=O)c4ccccc4)c4ccccc4)C(C)=C1C3(C)C)[C@]1(OC(C)=O)CO[C@@H]1C[C@@H]2O [Paclitaxel]; conditions: max 3 µM
Method in brief: as §1

Palbociclib = compound: CC(=O)c1c(C)c2cnc(Nc3ccc(N4CCNCC4)cn3)nc2n(C2CCCC2)c1=O [Palbociclib]; conditions: max 10 µM
Method in brief: as §1

AZD1390 = compound: CC(C)n1c(=O)n(C)c2cnc3cc(F)c(-c4ccc(OCCCN5CCCCC5)nc4)cc3c21 [AZD1390]; conditions: max 0.3 µM
Method in brief: as §1

Venetoclax = compound: CC1(C)CCC(CN2CCN(c3ccc(C(=O)NS(=O)(=O)c4ccc(NCC5CCOCC5)c([N+](=O)[O-])c4)c(Oc4cnc5[nH]ccc5c4)c3)CC2)=C(c2ccc(Cl)cc2)C1 [Venetoclax]; conditions: max 1 µM
Method in brief: as §1

Dasatinib = compound: CC1=C(C(=CC=C1)Cl)NC(=O)C2=CN=C(S2)NC3=CC(=NC(=N3)C)N4CCN(CC4)CCO [Dasatinib]; conditions: max 2 µM
Method in brief: as §1

SG3199 = compound: CC1=CN2[C@@H](C1)C=NC3=CC(=C(C=C3C2=O)OC)OCCCCCOC4=C(C=C5C(=C4)N=C[C@@H]6CC(=CN6C5=O)C)OC [SG3199]; conditions: max 0.001 µM
Method in brief: as §1

AZD2811 = compound: CCN(CCO)CCCOc1ccc2c(Nc3cc(CC(=O)Nc4cccc(F)c4)[nH]n3)ncnc2c1 [AZD2811]; conditions: max 1 µM
Method in brief: as §1

SN-38 = compound: CCc1c2c(nc3ccc(O)cc13)-c1cc3c(c(=O)n1C2)COC(=O)[C@]3(O)CC [SN-38]; conditions: max 0.3 µM
Method in brief: as §1

AZD0156 = compound: CN(C)CCCOc1ccc(-c2ccc3ncc4c(c3c2)n(C2CCOCC2)c(=O)n4C)cn1 [AZD0156]; conditions: max 3 µM
Method in brief: as §1

AZD4320 = compound: CN(CC[C@H](CSC1=CC=CC=C1)NC2=C(C=C(C=C2)S(=O)(=O)NC(=O)C3=CC=C(C=C3)N4CCC(CC4)[C@H](C5=CC=CC=C5C6=CC=C(C=C6)Cl)O)S(=O)(=O)C(F)(F)F)CCO [AZD4320]; conditions: max 1 µM
Method in brief: as §1

Alisertib = compound: COc1cc(Nc2ncc3c(n2)-c2ccc(Cl)cc2C(c2c(F)cccc2OC)=NC3)ccc1C(=O)O [Alisertib]; conditions: max 10 µM
Method in brief: as §1

Etoposide = compound: COc1cc([C@@H]2c3cc4c(cc3[C@@H](O[C@@H]3O[C@@H]5CO[C@@H](C)O[C@H]5[C@H](O)[C@H]3O)[C@H]3COC(=O)[C@H]23)OCO4)cc(OC)c1O [Etoposide]; conditions: max 10 µM
Method in brief: as §1

Gefitinib = compound: COc1cc2ncnc(Nc3ccc(F)c(Cl)c3)c2cc1OCCCN1CCOCC1 [Gefitinib]; conditions: max 10 µM
Method in brief: as §1

Prexasertib = compound: COc1cccc(OCCCN)c1-c1cc(Nc2cnc(C#N)cn2)n[nH]1 [Prexasertib]; conditions: max 1 µM
Method in brief: as §1

Doxorubicin = compound: COc1cccc2c1C(=O)c1c(O)c3c(c(O)c1C2=O)C[C@@](O)(C(=O)CO)C[C@@H]3O[C@H]1C[C@H](N)[C@H](O)[C@H](C)O1 [Doxorubicin]; conditions: max 1 µM
Method in brief: as §1

AZD5153 = compound: COc1nnc2ccc(N3CCC(c4ccc(OCCN5CCN(C)C(=O)[C@H]5C)cc4)CC3)nn12 [AZD5153]; conditions: max 1 µM
Method in brief: as §1

Lapatinib = compound: CS(=O)(=O)CCNCc1ccc(-c2ccc3ncnc(Nc4ccc(OCc5cccc(F)c5)c(Cl)c4)c3c2)o1 [Lapatinib]; conditions: max 10 µM
Method in brief: as §1

AZD8186 = compound: C[C@@H](Nc1cc(F)cc(F)c1)c1cc(C(=O)N(C)C)cc2c(=O)cc(N3CCOCC3)oc12 [AZD8186]; conditions: max 10 µM
Method in brief: as §1

Crizotinib = compound: C[C@@H](Oc1cc(-c2cnn(C3CCNCC3)c2)cnc1N)c1c(Cl)ccc(F)c1Cl [Crizotinib]; conditions: max 10 µM
Method in brief: as §1

Savolitinib = compound: C[C@@H](c1ccc2nccn2c1)n1nnc2ncc(-c3cnn(C)c3)nc21 [Savolitinib]; conditions: max 1 µM
Method in brief: as §1

AZD6738 = compound: C[C@@H]1COCCN1C2=NC(=NC(=C2)C3(CC3)[S@](=N)(=O)C)C4=C5C=CNC5=NC=C4 [AZD6738]; conditions: max 10 µM
Method in brief: as §1

AZD5991 = compound: Cc1c2c(nn1C)CSCc1cc(n(C)n1)CSc1cc(c3ccccc3c1)OCCCc1c(C(=O)O)n(C)c3c-2c(Cl)ccc13 [AZD5991]; conditions: max 1 µM
Method in brief: as §1

AZD7648 = compound: Cc1cc2ncnn2cc1Nc1ncc2c(n1)n(C1CCOCC1)c(=O)n2C [AZD7648]; conditions: max 10 µM
Method in brief: as §1

Taselisib = compound: Cc1nc(-c2cn3c(n2)-c2ccc(-c4cnn(C(C)(C)C(N)=O)c4)cc2OCC3)n(C(C)C)n1 [Taselisib]; conditions: max 10 µM
Method in brief: as §1

Selumetinib = compound: Cn1cnc2c(F)c(Nc3ccc(Br)cc3Cl)c(C(=O)NOCCO)cc21 [Selumetinib]; conditions: max 10 µM
Method in brief: as §1

SRA737 = compound: N#Cc1cnc(Nc2cc(NC[C@H]3CNCCO3)c(C(F)(F)F)cn2)cn1 [SRA737]; conditions: max 10 µM
Method in brief: as §1

MK-2206 = compound: NC1(c2ccc(-c3nc4ccn5c(=O)[nH]nc5c4cc3-c3ccccc3)cc2)CCC1 [MK-2206]; conditions: max 10 µM
Method in brief: as §1

Gemcitabine = compound: Nc1ccn([C@@H]2O[C@H](CO)[C@@H](O)C2(F)F)c(=O)n1 [Gemcitabine]; conditions: max 0.3 µM
Method in brief: as §1

[1] = compound: O=C(Nc1ccc2[nH]nc(-c3ccncc3)c2c1)[C@@H]1CCN(CC(=O)N2CCN(c3ccc(-c4ncccn4)cc3)CC2)C1; conditions: max 5 µM
Method in brief: as §1

Olaparib = compound: O=C(c1cc(Cc2n[nH]c(=O)c3ccccc23)ccc1F)N1CCN(C(=O)C2CC2)CC1 [Olaparib]; conditions: max 10 µM
Method in brief: as §1

5-Fluorouracil = compound: O=c1[nH]cc(F)c(=O)[nH]1 [5-Fluorouracil]; conditions: max 20 µM
Method in brief: as §1

Row | Cell Line | IC50, cell viability 72 h (Carboplatin) [nM] | IC50, cell viability 72 h (AZD5363) [nM] | IC50, cell viability 72 h (AZD1775) [nM] | IC50, cell viability 72 h (Trametinib) [nM] | IC50, cell viability 72 h (Paclitaxel) [nM] | IC50, cell viability 72 h (Palbociclib) [nM] | IC50, cell viability 72 h (AZD1390) [nM] | IC50, cell viability 72 h (Venetoclax) [nM] | IC50, cell viability 72 h (Dasatinib) [nM] | IC50, cell viability 72 h (SG3199) [nM] | IC50, cell viability 72 h (AZD2811) [nM] | IC50, cell viability 72 h (SN-38) [nM] | IC50, cell viability 72 h (AZD0156) [nM] | IC50, cell viability 72 h (AZD4320) [nM] | IC50, cell viability 72 h (Alisertib) [nM] | IC50, cell viability 72 h (Etoposide) [nM] | IC50, cell viability 72 h (Gefitinib) [nM] | IC50, cell viability 72 h (Prexasertib) [nM] | IC50, cell viability 72 h (Doxorubicin) [nM] | IC50, cell viability 72 h (AZD5153) [nM] | IC50, cell viability 72 h (Lapatinib) [nM] | IC50, cell viability 72 h (AZD8186) [nM] | IC50, cell viability 72 h (Crizotinib) [nM] | IC50, cell viability 72 h (Savolitinib) [nM] | IC50, cell viability 72 h (AZD6738) [nM] | IC50, cell viability 72 h (AZD5991) [nM] | IC50, cell viability 72 h (AZD7648) [nM] | IC50, cell viability 72 h (Taselisib) [nM] | IC50, cell viability 72 h (Selumetinib) [nM] | IC50, cell viability 72 h (SRA737) [nM] | IC50, cell viability 72 h (MK-2206) [nM] | IC50, cell viability 72 h (Gemcitabine) [nM] | IC50, cell viability 72 h [1] [nM] | IC50, cell viability 72 h (Olaparib) [nM] | IC50, cell viability 72 h (5-Fluorouracil) [nM]
1 | SW1088 (Low Grade Glioma) | > 10000 | 6480 | 2040 | > 1000 | 29.1 | > 10000 | > 300 | > 1000 | 283 | > 1 | > 1000 | > 300 | > 3000 | > 1000 | 807 | > 10000 | > 10000 | 129 | > 1000 | > 1000 | > 10000 | 1740 | > 10000 | > 1000 | 9510 | > 1000 | > 10000 | 4280 | > 10000 | > 10000 | > 10000 | > 300 | > 5000 | > 10000 | > 20000
2 | SW1783 (Low Grade Glioma) | > 10000 | > 10000 | 1410 | > 1000 | 407 | > 10000 | > 300 | > 1000 | > 2000 | > 1 | > 1000 | 45.2 | > 3000 | > 1000 | 8540 | > 10000 | > 10000 | > 1000 | > 1000 | > 1000 | > 10000 | 8000 | > 10000 | > 1000 | > 10000 | > 1000 | > 10000 | 5980 | > 10000 | > 10000 | > 10000 | 121 | > 5000 | > 10000 | > 20000
3 | SW1990 (Pancreatic Carcinoma) | > 10000 | > 10000 | > 3000 | > 1000 | > 3000 | > 10000 | > 300 | > 1000 | > 2000 | > 1 | > 1000 | > 300 | > 3000 | > 1000 | > 10000 | > 10000 | > 10000 | 49.9 | > 1000 | > 1000 | > 10000 | > 10000 | > 10000 | > 1000 | > 10000 | > 1000 | > 10000 | > 10000 | > 10000 | 9750 | > 10000 | > 300 | > 5000 | > 10000 | > 20000
4 | TE-5 (Esophageal Squamous Cell Carcinoma) | > 10000 | > 10000 | > 3000 | > 1000 | 79.8 | > 10000 | > 300 | > 1000 | > 2000 | > 1 | > 1000 | 55.8 | > 3000 | > 1000 | > 10000 | > 10000 | > 10000 | 884 | > 1000 | > 1000 | > 10000 | > 10000 | > 10000 | > 1000 | > 10000 | > 1000 | > 10000 | 2040 | > 10000 | > 10000 | > 10000 | 71.4 | > 5000 | > 10000 | > 20000
5 | U-266 (Plasma Cell Myeloma) | > 10000 | > 10000 | 1030 | 225 | 10.2 | > 10000 | > 300 | > 1000 | > 2000 | > 1 | > 1000 | > 300 | > 3000 | 841 | 9540 | > 10000 | > 10000 | 50.6 | > 1000 | > 1000 | > 10000 | > 10000 | > 10000 | > 1000 | > 10000 | 219 | > 10000 | > 10000 | > 10000 | > 10000 | > 10000 | 131 | 4960 | > 10000 | > 20000

From the supplement of paper PMC11061612
